This note sets out measurements from PMC12002099, “Recombinant Production and Characterization of Six Ene‐reductases from Penicillium steckii” (Chembiochem, 2025).

For experiment [1], the target named is T1, PsOYE4 (Penicillium steckii, UniProt A0A1V6TQX2).
T1 construct: gene PENSTE_c003G03501
The experiment is described as follows: steady-state kinetics, NADPH consumption, Michaelis-Menten fit. It counts as biochemical. Conditions: co-substrate p-benzoquinone. The source says: steady-state kinetics, NADPH consumption, Michaelis-Menten fit on PsOYE4

The next experiment deals with T2, PsOYE3 (Penicillium steckii, UniProt A0A1V6SNM3).
T2 construct: gene PENSTE_c027G02138
T2 sequence (A0A1V6SNM3 1-421): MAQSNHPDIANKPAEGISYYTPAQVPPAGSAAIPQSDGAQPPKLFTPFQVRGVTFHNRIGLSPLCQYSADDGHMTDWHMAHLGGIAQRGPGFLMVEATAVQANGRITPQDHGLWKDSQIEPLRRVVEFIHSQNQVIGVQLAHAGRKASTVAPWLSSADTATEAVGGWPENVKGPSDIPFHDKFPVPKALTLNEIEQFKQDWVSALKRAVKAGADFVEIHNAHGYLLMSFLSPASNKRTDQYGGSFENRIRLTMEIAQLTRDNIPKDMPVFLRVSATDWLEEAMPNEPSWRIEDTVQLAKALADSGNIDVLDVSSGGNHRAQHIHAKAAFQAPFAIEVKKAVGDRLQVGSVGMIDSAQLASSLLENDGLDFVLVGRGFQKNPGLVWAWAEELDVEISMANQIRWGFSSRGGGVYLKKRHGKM
The experiment is described as follows: UV-Vis flavin spectrum of purified enzyme, FMN release on denaturation. As to conditions: co-purified cofactor. In kind it is binding.

A further experiment deals with T3, PsOYE2 (Penicillium steckii, UniProt A0A1V6SMJ6).
T3 construct: gene PENSTE_c029G02105; tag-free, His-SUMO fusion cut off, expressed in E. coli; homodimer; residues 2-413 seen, C-terminus 414-422 not visible
T3 sequence (A0A1V6SMJ6 1-422): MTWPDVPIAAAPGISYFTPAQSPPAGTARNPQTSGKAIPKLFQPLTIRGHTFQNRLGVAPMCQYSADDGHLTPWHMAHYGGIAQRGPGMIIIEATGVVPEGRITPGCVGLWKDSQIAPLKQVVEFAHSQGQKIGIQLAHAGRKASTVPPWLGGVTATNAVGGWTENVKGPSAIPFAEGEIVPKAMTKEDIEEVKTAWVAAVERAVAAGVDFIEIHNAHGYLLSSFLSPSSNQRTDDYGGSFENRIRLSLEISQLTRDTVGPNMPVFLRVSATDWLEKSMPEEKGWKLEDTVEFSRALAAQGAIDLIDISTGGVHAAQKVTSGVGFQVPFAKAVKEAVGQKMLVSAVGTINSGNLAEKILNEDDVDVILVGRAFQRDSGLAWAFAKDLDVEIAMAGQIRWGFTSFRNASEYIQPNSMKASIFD
Kind of experiment: X-ray crystal structure, […] Å. In kind it is binding. Conditions: co-purified cofactor; site completed by adjacent protomer.

A further experiment concerns the target T4, PsOYE1 (Penicillium steckii, UniProt A0A1V6T993).
T4 construct: gene PENSTE_c009G01003
T4 sequence (A0A1V6T993 1-408): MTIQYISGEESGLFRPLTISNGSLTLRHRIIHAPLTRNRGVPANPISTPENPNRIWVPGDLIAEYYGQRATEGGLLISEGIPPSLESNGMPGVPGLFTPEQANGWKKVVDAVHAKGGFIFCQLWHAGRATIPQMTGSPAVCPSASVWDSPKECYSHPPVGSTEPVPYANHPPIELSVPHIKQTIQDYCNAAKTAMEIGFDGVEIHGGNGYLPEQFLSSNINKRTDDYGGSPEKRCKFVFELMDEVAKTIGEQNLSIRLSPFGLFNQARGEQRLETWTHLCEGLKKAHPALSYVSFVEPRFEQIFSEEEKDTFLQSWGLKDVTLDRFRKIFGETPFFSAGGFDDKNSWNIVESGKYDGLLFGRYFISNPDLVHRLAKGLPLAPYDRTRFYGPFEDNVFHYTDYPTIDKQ
The experiment is described as follows: UV-Vis flavin spectrum of purified enzyme, FMN release on denaturation. It counts as binding. Conditions: co-purified cofactor.

The target of experiment [2] is T1, PsOYE4. Described as above. As to conditions: co-purified cofactor. In kind it is binding.
A further experiment deals with T5, PsOYE6 (Penicillium steckii, UniProt A0A1V6SJW2).
T5 construct: gene PENSTE_c042G09698
T5 sequence (A0A1V6SJW2 1-370): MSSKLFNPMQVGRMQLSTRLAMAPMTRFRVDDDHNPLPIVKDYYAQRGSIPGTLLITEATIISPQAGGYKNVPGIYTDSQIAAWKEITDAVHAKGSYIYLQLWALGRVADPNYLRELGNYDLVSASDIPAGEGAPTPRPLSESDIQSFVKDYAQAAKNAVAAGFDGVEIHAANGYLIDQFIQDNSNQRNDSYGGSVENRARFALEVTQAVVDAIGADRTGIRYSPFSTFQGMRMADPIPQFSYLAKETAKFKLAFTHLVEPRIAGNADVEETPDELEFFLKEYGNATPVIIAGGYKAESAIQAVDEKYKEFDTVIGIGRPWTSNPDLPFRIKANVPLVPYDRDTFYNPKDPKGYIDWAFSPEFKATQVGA
The description is as above. In kind it is binding. As to conditions: co-purified cofactor.

For orientation: Km means the concentration of substrate that gives half-maximal velocity. On to `NC(=O)C1=CN([C@@H]2O[C@H](COP(=O)(O)OP(=O)(O)OC[C@H]3O[C@@H](n4cnc5c(N)ncnc54)[C@H](OP(=O)(O)O)[C@@H]3O)[C@@H](O)[C@H]2O)C=CC1` [NADPH], for which the Km on PsOYE4 [1] is 300 ± 100 µM.

Turning to `Cc1cc2nc3c(=O)[nH]c(=O)nc-3n(C[C@H](O)[C@H](O)[C@H](O)COP(=O)(O)O)c2cc1C` [FMN], the “UV-Vis flavin spectrum of purified enzyme, FMN release on denaturation” value on PsOYE3 was “Expression and subsequent purification led to reasonably high yields of pure, soluble, and FMN‐bound proteins”; at PsOYE1 it was “Expression and subsequent purification led to reasonably high yields of pure, soluble, and FMN‐bound proteins”; on PsOYE4 [2], “Expression and subsequent purification led to reasonably high yields of pure, soluble, and FMN‐bound proteins”; on PsOYE6 it was “Expression and subsequent purification led to reasonably high yields of pure, soluble, and FMN‐bound proteins”. At PsOYE2, the “X-ray crystal structure, 2.3 Å” value is listed as “The FMN cofactor, situated on the C‐terminal side of the barrel, has interactions”.
